Test results reported in patent publication US20060040870A1, “Enhancement of apoptosis by caspase-9 inhibitors” (priority 2004, published 2006).
The star is where a group is joined. Cbz = O=C(OCc1ccccc1)*; CH2F = FC*

What was measured:
[1] = tested on: RAMOS Burkitt lymphoma cell line; assay: Apoptosis by Annexin V staining and flow cytometry, RAMOS; assay type: cell-based, human; settings: 50 μM, 18 hours
[2] = tested on: JURKAT T lymphoma cell line; assay: Apoptosis by Annexin V staining and flow cytometry, JURKAT; assay type: cell-based; settings: 50 μM, 18 hours
Method: FIG. 4 is a pair of graphs showing the effect of […] on various cell lines, as determined by Annexin V staining and flow cytometry. The cells included the B-cell precursor ALL cell lines […], and NALM-6, the RAMOS, RAJI, and DAUDI Burkitt lymphoma cell lines, the CCRF-CEM, JURKAT, and H9 T lymphoma cell lines, the K-562 erythroleukemia cell line, and resting or activated (i.e., CD3/CD28 cross-linked) normal human T cells. […] Flow cytometry. Quantitation of apoptotic events was conducted using a FACS Calibur (BD Immunocytometry Systems). All analyses were conducted on cells with lymphoid light scatter characteristics (i.e., low to medium forward scatter and low 90° side scatter). iii. Annexin V. […] Cells were stained according to the manufacturers recommendations.

Z-LEHD-fmk (Cbz-LEHD-CH2F; SMILES CC(C)C[C@H](NC(=O)OCc1ccccc1)C(=O)N[C@@H](CCC(=O)O)C(=O)N[C@@H](Cc1c[nH]cn1)C(=O)N[C@@H](CC(=O)O)C(=O)CF) [C9i]
sensitivity (fold-increase in Annexin V+ cells vs DMSO) [1]: extremely sensitive | sensitivity (fold-increase in Annexin V+ cells vs DMSO) [2]: sensitive
